Reference: patent US9624184B2, “Heterocyclic compound” (TAKEDA PHARMACEUTICAL COMPANY LIMITED, priority 2013, dated 2017)

These molecules were tested against T1, human CH24H (Homo sapiens, UniProt Q9Y6A2) (assay: Measurement of CH24H inhibitory activity (24-HC produced from [14C] cholesterol by human CH24H lysate)). Conditions: 1 μM test compound, [14C] cholesterol 15 μM, 37° C. for 5 hr, read-out: Inhibitory Rate in 1 μM (%).
T1 construct: Using Full-Length Mammalian Gene Collection No. 4819975 (Invitrogen) as a template; made in house; host or cells: FreeStyle 293-F cells (transient transfection with pcDNA3.1(+)/hCH24H); cell lysate supernatant
T1 sequence (Q9Y6A2 whole entry): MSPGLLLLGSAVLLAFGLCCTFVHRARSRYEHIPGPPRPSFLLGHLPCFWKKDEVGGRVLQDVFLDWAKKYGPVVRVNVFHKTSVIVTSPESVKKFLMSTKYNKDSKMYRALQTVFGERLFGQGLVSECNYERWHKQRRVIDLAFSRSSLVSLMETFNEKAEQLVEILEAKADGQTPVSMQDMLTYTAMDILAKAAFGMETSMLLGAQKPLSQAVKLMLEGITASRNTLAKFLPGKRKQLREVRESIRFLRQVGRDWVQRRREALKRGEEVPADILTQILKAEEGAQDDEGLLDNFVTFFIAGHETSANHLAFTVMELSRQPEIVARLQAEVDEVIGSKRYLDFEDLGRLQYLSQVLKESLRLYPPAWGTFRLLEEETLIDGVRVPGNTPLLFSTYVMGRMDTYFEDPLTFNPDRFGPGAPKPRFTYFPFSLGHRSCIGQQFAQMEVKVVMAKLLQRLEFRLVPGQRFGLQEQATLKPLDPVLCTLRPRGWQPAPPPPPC
Type: biochemical
Protocol: A plasmid DNA for expressing human CH24H in a FreeStyle 293 cell was produced as follows. Using Full-Length Mammalian Gene Collection No. 4819975 (Invitrogen) as a template, and the following two kinds of synthesized DNAs: 5′-[…]-3′ (SEQ ID NO: 1) and 5′-[…]-3′ (SEQ ID NO: 2), PCR was performed to amplify 91-1625 bp region of human CH24H (BC022539). The obtained fragment was cloned using TOPO TA Cloning Kit (Invitrogen). The obtained fragment was subcloned to pcDNA3.1(+) digested with BamHI and XhoI to give a plasmid DNA for human CH24H expression (pcDNA3.1(+)/hCH24H).
The expression of human CH24H was performed using FreeStyle 293 Expression System (Invitrogen). According to the manual attached to FreeStyle 293 Expression System and using the plasmid DNA for human CH24H expression (pcDNA3.1(+)/hCH24H) constructed in Experimental Example 1, a transient expression using FreeStyle 293-F cell was performed. After transfection, the cells were cultured at 37° C., 8% CO2 with shaking at 125 rpm for 2 days. The cells were collected by centrifugation, and suspended in a suspension buffer (100 mM potassium phosphate (pH 7.4), 0.1 mM EDTA, 1 mM DTT, 20% Glycerol). The suspended product was disrupted by a polytron homogenizer (manufactured by Kinematica), and centrifuged at 9000×g for 10 min, and the supernatant was collected. The collected supernatant was cryopreserved (−80° C.) as a human CH24H lysate standard product.
For the measurement of CH24H inhibitory activity, using the human CH24H lysate prepared in Experimental Example 2, the amount of 24-HC produced from cholesterol by catalytic activity of CH24H was measured in the presence of a test compound, and compared with that measured in the absence of the test compound. That is, a test compound solution at various concentrations was mixed with a reaction buffer (50 mM potassium phosphate containing 0.1% BSA and Complete, EDTA-free, pH 7.4) and human CH24H lysate. Then, [^14C] cholesterol (53 mCi/mmol specific activity, 15 μM) was added, and CH24H reaction was performed at 37° C. for 5 hr. After completion of the reaction, a quenching solution consisting of chloroform/methanol/distilled water (2:2:1 v/v) was added, and the resulting 24-HC was extracted by shaking. The extract was applied to silica gel thin layer chromatography (ethyl acetate:toluene=4:6), and the obtained ^14C-24HC fraction was measured with BAS2500 (Fujifilm Corporation).
The inhibitory rate (%) was calculated from the ratio of radioactivity in the presence of a test compound relative to the radioactivity in the absence of the test compound.
Molecule `O=C(Nc1cc(-c2cnco2)cc(C(F)(F)F)c1)c1cccc(Cl)c1` [Example 1, 3-chloro-N-(3-(1,3-oxazol-5-yl)-5-(trifluoromethyl)phenyl)benzamide] has an inhibition at 1 µM of 89%. With `CC(C)c1cc(NS(=O)(=O)c2cccc(Cl)c2)cc(-c2cnco2)c1` [Example 4, 3-chloro-N-(3-isopropyl-5-(1,3-oxazol-5-yl)phenyl)benzenesulfonamide] the inhibition at 1 µM was 89%. `O=C(Nc1cc(-c2cnco2)cc(C2CC2)c1)c1cccc(Cl)c1` [Example 5, 3-chloro-N-(3-cyclopropyl-5-(1,3-oxazol-5-yl)phenyl)benzamide] gave an inhibition at 1 µM of 79%. For `O=S(=O)(Nc1cc2c(c(-c3cnco3)c1)OCC2)c1cccc(Cl)c1` [Example 10, 3-chloro-N-(7-(1,3-oxazol-5-yl)-2,3-dihydro-1-benzofuran-5-yl)benzenesulfonamide], the inhibition at 1 µM was 83%. For `O=C(Nc1cc(-c2cnco2)cc(C(F)(F)F)c1)C1CC1` [Example 17, N-(3-(1,3-oxazol-5-yl)-5-(trifluoromethyl)phenyl) cyclopropanecarboxamide], the inhibition at 1 µM was 89%. Work on `O=C(Nc1cc(-c2cnco2)cc(C(F)F)c1)C1CC1` [Example 31, N-(3-(difluoromethyl)-5-(1,3-oxazol-5-yl)phenyl)cyclopropanecarboxamide] yielded an inhibition at 1 µM of 90%. `O=C(C1CC1)N1CCc2c(-c3cnco3)cc(C(F)(F)F)cc21` [Example 36, cyclopropyl(4-(1,3-oxazol-5-yl)-6-(trifluoromethyl)-2,3-dihydro-1H-indol-1-yl)methanone] showed an inhibition at 1 µM of 92%. Molecule `O=C(Cn1ccnc1)Nc1cc(-c2cnco2)cc(C(F)(F)F)c1` [Example 43, 2-(1H-imidazol-1-yl)-N-(3-(1,3-oxazol-5-yl)-5-(trifluoromethyl)phenyl)acetamide] has an inhibition at 1 µM of 90%. For `O=C(C1CC1)N1CCCOc2c(-c3cnco3)cc(C(F)(F)F)cc21` [Example 53, cyclopropyl(9-(1,3-oxazol-5-yl)-7-(trifluoromethyl)-3,4-dihydro-1,5-benzoxazepin-5(2H)-yl)methanone], the inhibition at 1 µM was 52%. For `O=C(C1CC1)N1CCOc2c(-c3cnco3)cc(C(F)(F)F)cc21` [Example 54, cyclopropyl(8-(1,3-oxazol-5-yl)-6-(trifluoromethyl)-2,3-dihydro-4H-1,4-benzoxazin-4-yl)methanone], the inhibition at 1 µM was 92%. For `FC(F)(F)c1cc(NCc2ccccn2)cc(-c2cnco2)c1` [Example 56, 3-(1,3-oxazol-5-yl)-N-(pyridin-2-ylmethyl)-5-(trifluoromethyl)aniline], the inhibition at 1 µM was 88%. Molecule `O=C(Nc1cc2c(c(-c3cnco3)c1)OCC2)C1CC1` [Example 58, N-(7-(1,3-oxazol-5-yl)-2,3-dihydro-1-benzofuran-5-yl)cyclopropanecarboxamide] has an inhibition at 1 µM of 84%. `O=C(Nc1cc(C(F)(F)F)cc(-c2cnco2)n1)C1CC1` [Example 61, N-(6-(1,3-oxazol-5-yl)-4-(trifluoromethyl)pyridin-2-yl)cyclopropanecarboxamide] was tested, and the inhibition at 1 µM was 88%. `CC(C)C(=O)N1CCc2c(-c3cnco3)cc(C(F)(F)F)cc21` [Example 80, 2-methyl-1-(4-(1,3-oxazol-5-yl)-6-(trifluoromethyl)-2,3-dihydro-1H-indol-1-yl)propan-1-one] showed an inhibition at 1 µM of 91%. With `O=C(N1CCOCC1)N1CCc2c(-c3cnco3)cc(C(F)(F)F)cc21` [Example 83, morpholin-4-yl(4-(1,3-oxazol-5-yl)-6-(trifluoromethyl)-2,3-dihydro-1H-indol-1-yl)methanone] the inhibition at 1 µM was 92%. For `O=C(C1CCOCC1)N1CCc2c(-c3cnco3)cc(C(F)(F)F)cc21` [Example 87, (4-(1,3-oxazol-5-yl)-6-(trifluoromethyl)-2,3-dihydro-1H-indol-1-yl)(tetrahydro-2H-pyran-4-yl)methanone], the inhibition at 1 µM was 97%. `FC1(F)CCN(c2cc(-c3cnco3)cc(C(F)(F)F)c2)CC1` [Example 89, 4,4-difluoro-1-(3-(1,3-oxazol-5-yl)-5-(trifluoromethyl)phenyl)piperidine] gave an inhibition at 1 µM of 93%. Work on `OC1(Cc2ccccc2)CCN(c2cc(-c3cnco3)cc(C(F)(F)F)c2)CC1` [Example 92, 4-benzyl-1-(3-(1,3-oxazol-5-yl)-5-(trifluoromethyl)phenyl)piperidin-4-ol] yielded an inhibition at 1 µM of 89%. `O[C@H]1CCN(c2cc(-c3cnco3)cc(C(F)(F)F)c2)C1` [Example 95, (3S)-1-(3-(1,3-oxazol-5-yl)-5-(trifluoromethyl)phenyl)pyrrolidin-3-ol] gave an inhibition at 1 µM of 96%. `OC1CCN(c2cc(C(F)(F)F)cc(-c3cnco3)n2)C1` (stereo not drawn) [Example 96, 1-(6-(1,3-oxazol-5-yl)-4-(trifluoromethyl)pyridin-2-yl)pyrrolidin-3-ol] was tested, and the inhibition at 1 µM was 91%. `OC1CN(c2cc(-c3cnco3)cc(C(F)(F)F)c2)CCC1Cc1ccccc1` (stereo not drawn) [Example 100, 4-benzyl-1-(3-(1,3-oxazol-5-yl)-5-(trifluoromethyl)phenyl)piperidin-3-ol] showed an inhibition at 1 µM of 97%. For `CC(=O)N1CCN(c2cc(-c3cnco3)cc(C(F)(F)F)c2)CC1` [Example 107, 1-(4-(3-(1,3-oxazol-5-yl)-5-(trifluoromethyl)phenyl)piperazin-1-yl)ethanone], the inhibition at 1 µM was 91%. In the case of `CS(=O)(=O)NC1CCN(c2cc(-c3cnco3)cc(C(F)(F)F)c2)C1` (stereo not drawn) [Example 119, N-(1-(3-(1,3-oxazol-5-yl)-5-(trifluoromethyl)phenyl)pyrrolidin-3-yl)methanesulfonamide], the inhibition at 1 µM is reported as 95%. `CC1(C)CCN(c2cc(-c3cnco3)cc(C(F)(F)F)c2)C1=O` [Example 127, 3,3-dimethyl-1-(3-(1,3-oxazol-5-yl)-5-(trifluoromethyl)phenyl)pyrrolidin-2-one] was tested, and the inhibition at 1 µM was 91%. Molecule `O=C(N1CCc2c(-c3cnco3)cc(C(F)(F)F)cc21)N1C[C@@H]2C[C@H]1CO2` [Example 128, (1S,4S)-2-oxa-5-azabicyclo[2.2.1]hept-5-yl(4-(1,3-oxazol-5-yl)-6-(trifluoromethyl)-2,3-dihydro-1H-indol-1-yl)methanone] has an inhibition at 1 µM of 97%. For `CC1(C)CCN(c2cc(C(F)(F)F)cc(-c3cnco3)n2)C1=O` [Example 134, 3,3-dimethyl-1-(6-(1,3-ozazol-5-yl)-4-(trifluoromethyl)pyridin-2-yl)pyrrolidin-2-one], the inhibition at 1 µM was 89%.

Each molecule was assayed on 24-HC in the brain (assay: Quantification test of 24-HC in mouse brain after repeated oral administration). Conditions: 10 mg/kg orally once a day for 3 days; female C57BL/6N mice; brain 24-HC at 16 hours after the third administration; relative values with the control group as 100%.
Type: in vivo
Protocol: Animals used were 6-week-old female C57BL/6N mice (3 mice/group). A test compound was suspended in a 0.5% aqueous methylcellulose [133-14255 WAKO] solution (1 mg/mL). The body weight of the mice was measured, and the solution was forcibly administered orally and repeatedly once a day for 3 days. At 16 hours after the third administration, half of the brain was harvested, and the amount of 24-HC was measured.
The wet weight of the brain was measured, and the brain was homogenized with 4-fold amount of saline. This solution was used as a brain extract. The 24-HC in the brain extract was extracted with an acetonitrile solution (98% acetonitrile, 1.98% methanol, 0.02% formic acid), and quantified by HPLC. The average value of 24-HC amount was calculated and the results are shown in relative values with the control group as 100%.
For `O=C(Nc1cc(-c2cnco2)cc(C(F)(F)F)c1)C1CC1` [Example 17, N-(3-(1,3-oxazol-5-yl)-5-(trifluoromethyl)phenyl) cyclopropanecarboxamide], the “Decreasing Rate in 10 mg/kg (%)” value was 80%. In the case of `O=C(C1CC1)N1CCc2c(-c3cnco3)cc(C(F)(F)F)cc21` [Example 36, cyclopropyl(4-(1,3-oxazol-5-yl)-6-(trifluoromethyl)-2,3-dihydro-1H-indol-1-yl)methanone], the “Decreasing Rate in 10 mg/kg (%)” value is reported as 73%.

Same assay, conditions: 30 mg/kg orally once a day for 3 days; female C57BL/6N mice; brain 24-HC at 16 hours after the third administration; relative values with the control group as 100%
In the case of `O=C(C1CCOCC1)N1CCc2c(-c3cnco3)cc(C(F)(F)F)cc21` [Example 87, (4-(1,3-oxazol-5-yl)-6-(trifluoromethyl)-2,3-dihydro-1H-indol-1-yl)(tetrahydro-2H-pyran-4-yl)methanone], the “Decreasing Rate in 30 mg/kg (%)” value is reported as 56%. `O[C@H]1CCN(c2cc(-c3cnco3)cc(C(F)(F)F)c2)C1` [Example 95, (3S)-1-(3-(1,3-oxazol-5-yl)-5-(trifluoromethyl)phenyl)pyrrolidin-3-ol] was tested, and the “Decreasing Rate in 30 mg/kg (%)” value was 66%.
